According to US8889671B2, “Compounds and methods for treating bacterial infections” (AstraZeneca AB, priority 2013, dated 2014):
Values after ≈ are worked out from the molar mass of the structure shown. Where two headings read alike, the source gives them in different places.

What was measured:
Staphylococcus aureus = assay: Susceptibility testing (MIC) Assay 1, broth microdilution; format: cell-based
Streptococcus pneumoniae = assay: as above; format: cell-based
Streptococcus pyogenes = assay: as above; format: cell-based; settings: Streptococcus pyrgenes, in vivo strain, read-out: Spy MIC
Pseudomonas aeruginosa = assay: Susceptibility testing (MIC) Assay 2, broth microdilution; format: cell-based; settings: for MIC: PAO1, read-out: Pae MIC
Escherichia coli = assay: as above; format: cell-based; settings: K12, read-out: Eco MIC
Klebsiella pneumoniae = assay: as above; format: cell-based; settings: clinical isolate, mucoid, read-out: Kpn MIC
Haemophilus influenzae = assay: as above; format: cell-based; settings: ATCC 51907, in vivo strain, read-out: Hin MIC
[1] = target: Escherichia coli DNA gyrase A/B tetramer (Escherichia coli (strain K12), UniProt P0AES4+P0AES6); assay: DNA gyrase supercoiling activity fluorescence polarisation assay; format: biochemical; settings: 0.3 mM ATP
Outline: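 IC50 derived by nonlinear regression from BODIPY-FL fluorescence anisotropy, read 60 min after quenching with labelled triplex-forming probe (pH 3.5). Reaction: 5 nM gyrase tetramer, 130 micrograms/mL relaxed plasmid, 0.3 mM ATP, 4 mM MgCl2, pH 7.5, typically 30 min at ambient temperature, 5-10 compound concentrations.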

[2] = Staphylococcus aureus, Staphylococcus aureus in vivo strain, MSQS, read-out: Sau(d) MIC
[3] = Staphylococcus aureus, in vivo strain, MRQR, read-out: Sau(e) MIC
[4] = Staphylococcus aureus, serum, read-out: Sau(f) MIC
[5] = in vivo strain (footnote b), read-out: Spn(b) MIC
[6] = in vivo strain (footnote c), read-out: Spn(c) MIC
[7] = ATCC51907, Haemophilus influenzae
[8] = Eco Gyr FP Mean IC50, E. coli DNA gyrase supercoiling

| Structure (SMILES) | MIC (Staphylococcus aureus; [2]) [µM] | MIC (Staphylococcus aureus; [3]) [µM] | MIC (Staphylococcus aureus; [4]) [µM] | MIC (Streptococcus pneumoniae; [5]) [µM] | MIC (Streptococcus pneumoniae; [6]) [µM] | MIC (Streptococcus pyogenes; Streptococcus pyogenes) [µM] | MIC (Pseudomonas aeruginosa) [µM] | MIC (Escherichia coli) [µM] | MIC (Klebsiella pneumoniae) [µM] | MIC (Haemophilus influenzae; [7]) [µM] | IC50 [1, 8] [nM] | MIC (Staphylococcus aureus; Staphylococcus aureus in vivo strain, MSQS, read-out: Sau(d) MIC) [µM] | MIC (Streptococcus pyogenes) [µM] | Pae MIC (Pseudomonas aeruginosa; PAO1) [µM] | MIC (Haemophilus influenzae) [µM] | IC50 ([1]; E. coli DNA gyrase supercoiling, read-out: Eco Gyr FP Mean IC50) [nM] |
| --- | --- | --- | --- | --- | --- | --- | --- | --- | --- | --- | --- | --- | --- | --- | --- | --- |
| C[C@@H]1CN2c3c(cc4c(N5C(=O)OC[C@@H]5CCO)noc4c3F)CC3(C(=O)NC(=O)NC3=O)[C@H]2[C@H](C)O1 [Example 31, (2R,4S,4aS)-11-Fluoro-8-((S)-4-(2-hydroxyethyl)-2-oxooxazolidin-3-yl)-2,4-dimethyl-2,4,4a,6-tetrahydro-1H,1′H-spiro[isoxazolo[4,5-g][1,4]oxazino[4,3-a]quinoline-5,5′-pyrimidine]-2′,4′,6′(3′H)-trione] | 3.1 (≈ 1.6 µg/mL) | 12 (≈ 6.21 µg/mL) | 3.1 (≈ 1.6 µg/mL) | 0.78 (≈ 0.404 µg/mL) | 0.78 (≈ 0.404 µg/mL) | 0.39 (≈ 0.202 µg/mL) | > 200 | 100 (≈ 51.7 µg/mL) | > 200 | 0.39 (≈ 0.202 µg/mL) | 420 | – | – | – | – | – |
| C[C@@H]1CN2c3c(cc4c(N5C[C@@H](CF)OC5=O)noc4c3Cl)CC3(C(=O)NC(=O)NC3=O)[C@H]2[C@H](C)O1 [Example 32, (2R,4S,4aS)-11-Chloro-8-((S)-5-(fluoromethyl)-2-oxooxazolidin-3-yl)-2,4-dimethyl-2,4,4a,6-tetrahydro-1H,1′H-spiro[isoxazolo[4,5-g][1,4]oxazino[4,3-a]quinoline-5,5′-pyrimidine]-2′,4′,6′(3′H)-trione] | < 0.2 | 0.78 (≈ 0.407 µg/mL) | 0.39 (≈ 0.204 µg/mL) | 0.39 (≈ 0.204 µg/mL) | 0.39 (≈ 0.204 µg/mL) | < 0.2 | 200 (≈ 104 µg/mL) | 1.5 (≈ 0.783 µg/mL) | 200 (≈ 104 µg/mL) | 0.27 (≈ 0.141 µg/mL) | 630 | – | – | – | – | – |
| C[C@@H]1CN2c3c(cc4c(N5C(=O)OC[C@@H]5CCCO)noc4c3Cl)CC3(C(=O)NC(=O)NC3=O)[C@H]2[C@H](C)O1 [Example 33, (2R,4S,4aS)-11-Chloro-8-((S)-4-(3-hydroxpropyl)-2-oxooxazolidin-3-yl)-2,4-dimethyl-2,4,4a,6-tetrahydro-1H,1′H-spiro[isoxazolo[4,5-g][1,4]oxazino[4,3-a]quinoline-5,5′-pyrimidine]-2′,4′,6′(3′H)-trione] | – | 12 (≈ 6.58 µg/mL) | 6.2 (≈ 3.4 µg/mL) | 0.39 (≈ 0.214 µg/mL) | 0.39 (≈ 0.214 µg/mL) | – | – | 100 (≈ 54.8 µg/mL) | >200 | – | – | 3.1 (≈ 1.7 µg/mL) | 0.39 (≈ 0.214 µg/mL) | >200 | 0.78 (≈ 0.427 µg/mL) | 260 |
| C[C@@H]1CN2c3c(cc4c(N5C(=O)OC[C@@H]5CCCF)noc4c3Cl)CC3(C(=O)NC(=O)NC3=O)[C@H]2[C@H](C)O1 [Example 34, (2R,4S,4aS)-11-Chloro-8-((S)-4-(3-fluoropropyl)-2-oxooxazolidin-3-yl)-2,4-dimethyl-2,4,4a,6-tetrahydro-1H,1′H-spiro[isoxazolo[4,5-g][1,4]oxazino[4,3-a]quinoline-5,5′-pyrimidine]-2′,4′,6′(3′H)-trione] | < 0.2 | 0.78 (≈ 0.429 µg/mL) | 1.6 (≈ 0.88 µg/mL) | 0.39 (≈ 0.214 µg/mL) | 0.39 (≈ 0.214 µg/mL) | 0.39 (≈ 0.214 µg/mL) | > 200 | 25 (≈ 13.7 µg/mL) | 200 (≈ 110 µg/mL) | 0.39 (≈ 0.214 µg/mL) | 230 | – | – | – | – | – |
| COC[C@@H]1CN(c2noc3c(F)c4c(cc23)CC2(C(=O)NC(=O)NC2=O)[C@H]2[C@H](C)O[C@H](C)CN42)C(=O)O1 [Example 35] | < 0.2 | 1.6 (≈ 0.828 µg/mL) | 0.39 (≈ 0.202 µg/mL) | 0.39 (≈ 0.202 µg/mL) | 0.39 (≈ 0.202 µg/mL) | 0.2 (≈ 0.103 µg/mL) | > 200 | 50 (≈ 25.9 µg/mL) | > 200 | 0.78 (≈ 0.404 µg/mL) | 310 | – | – | – | – | – |
| COC[C@H]1CN(c2noc3c(F)c4c(cc23)CC2(C(=O)NC(=O)NC2=O)[C@H]2[C@H](C)O[C@H](C)CN42)C(=O)O1 [Example 36] | 0.78 (≈ 0.404 µg/mL) | 3.1 (≈ 1.6 µg/mL) | 1.6 (≈ 0.828 µg/mL) | 1.6 (≈ 0.828 µg/mL) | 1.6 (≈ 0.828 µg/mL) | 0.78 (≈ 0.404 µg/mL) | > 200 | 100 (≈ 51.7 µg/mL) | > 200 | 1.6 (≈ 0.828 µg/mL) | 590 | – | – | – | – | – |
| C[C@@H]1CN2c3c(cc4c(N5C[C@H](CO)OC5=O)noc4c3F)CC3(C(=O)NC(=O)NC3=O)[C@H]2[C@H](C)O1 [Example 37, (2R,4S,4aS)-11-Fluoro-8-[(5R)-5-(hydroxymethyl)-2-oxo-1,3-oxazolidin-3-yl]-2,4-dimethyl-1,2,4,4a-tetrahydro-2′H,6H-spiro[1,4-oxazino[4,3-a][1,2]oxazolo[4,5-g]quinoline-5,5′-pyrimidine]-2′,4′,6′(1′H,3′H)-trione] | 3.1 (≈ 1.56 µg/mL) | 25 (≈ 12.6 µg/mL) | 6.2 (≈ 3.12 µg/mL) | 0.39 (≈ 0.196 µg/mL) | 0.78 (≈ 0.393 µg/mL) | 0.39 (≈ 0.196 µg/mL) | > 200 | 200 (≈ 101 µg/mL) | > 200 | 0.39 (≈ 0.196 µg/mL) | 120 | – | – | – | – | – |
| C[C@@H]1CN2c3c(cc4c(N5C[C@H](CF)OC5=O)noc4c3F)CC3(C(=O)NC(=O)NC3=O)[C@H]2[C@H](C)O1 [Example 38, (2R,4S,4aS)-11-Fluoro-8-[(5R)-5-(fluoromethyl)-2-oxo-1,3-oxazolidin-3-yl]-2,4-dimethyl-1,2,4,4a-tetrahydro-2′H,6H-spiro[1,4-oxazino[4,3-a][1,2]oxazolo[4,5-g]quinoline-5,5′-pyrimidine]-2′,4′,6′(1′H,3′H)-trione] | < 0.2 | 1.65 (≈ 0.834 µg/mL) | 0.78 (≈ 0.394 µg/mL) | 0.39 (≈ 0.197 µg/mL) | 0.39 (≈ 0.197 µg/mL) | < 0.2 | > 200 | 25 (≈ 12.6 µg/mL) | 200 (≈ 101 µg/mL) | 0.39 (≈ 0.197 µg/mL) | 67 | – | – | – | – | – |
| C=C[C@H]1COC(=O)N1c1noc2c(F)c3c(cc12)CC1(C(=O)NC(=O)NC1=O)[C@H]1[C@H](C)O[C@H](C)CN31 [Example 39, (2R,4S,4aS)-11-Fluoro-2,4-dimethyl-8-((S)-2-oxo-4-vinyloxazolidin-3-yl)-2,4,4a,6-tetrahydro-1H,1′H-spiro[isoxazolo[4,5-g][1,4]oxazino[4,3-a]quinoline-5,5′-pyrimidine]-2′,4′,6′(3′H)-trione] | 0.39 (≈ 0.195 µg/mL) | 1.6 (≈ 0.799 µg/mL) | 1.6 (≈ 0.799 µg/mL) | 0.78 (≈ 0.39 µg/mL) | 0.78 (≈ 0.39 µg/mL) | 0.39 (≈ 0.195 µg/mL) | > 200 | 25 (≈ 12.5 µg/mL) | 200 (≈ 99.9 µg/mL) | 0.39 (≈ 0.195 µg/mL) | 97 | – | – | – | – | – |
| C[C@@H]1CN2c3c(cc4c(N5C[C@H](C=NO)OC5=O)noc4c3F)CC3(C(=O)NC(=O)NC3=O)[C@H]2[C@H](C)O1 [Example 40, (2R,4S,4aS)-11-Fluoro-8-{(5R)-5-[(hydroxyimino)methyl]-2-oxo-1,3-oxazolidin-3-yl}-2,4-dimethyl-1,2,4,4a-tetrahydro-2′H,6H-spiro[1,4-oxazino[4,3a][1,2]oxazolo[4,5-g]quinoline-5,5′-pyrimidine]-2′,4′,6′(1′H,3′H)-trione] | 0.78 (≈ 0.403 µg/mL) | 3.1 (≈ 1.6 µg/mL) | 1.6 (≈ 0.826 µg/mL) | 0.39 (≈ 0.201 µg/mL) | 0.78 (≈ 0.403 µg/mL) | 0.28 (≈ 0.145 µg/mL) | > 200 | 12 (≈ 6.2 µg/mL) | > 200 | 0.39 (≈ 0.201 µg/mL) | 380 | – | – | – | – | – |
| C[C@@H]1CN2c3c(cc4c(N5C(=O)OC[C@@H]5C#N)noc4c3F)CC3(C(=O)NC(=O)NC3=O)[C@H]2[C@H](C)O1 [Example 41, (4S)-3-[(2R,4S,4aS)-11-Fluoro-2,4-dimethyl-2′,4′,6′-trioxo-1,1′,2,3′,4,4′,4a,6′-octahydro-2′H,6H-spiro[1,4-oxazino[4,3-a][1,2]oxazolo[4,5-g]quinoline-5,5′-pyrimidin]-8-yl]-2-oxo-1,3-oxazolidine-4-carbonitrile] | 0.78 (≈ 0.389 µg/mL) | 1.6 (≈ 0.797 µg/mL) | 1.6 (≈ 0.797 µg/mL) | 0.39 (≈ 0.194 µg/mL) | 0.78 (≈ 0.389 µg/mL) | 0.78 (≈ 0.389 µg/mL) | > 200 | 25 (≈ 12.5 µg/mL) | > 200 | 0.78 (≈ 0.389 µg/mL) | 460 | – | – | – | – | – |
| CON=C[C@H]1COC(=O)N1c1noc2c(F)c3c(cc12)CC1(C(=O)NC(=O)NC1=O)[C@H]1[C@H](C)O[C@H](C)CN31 [Example 42, (2R,4S,4aS)-11-Fluoro-8-{(4S)-4-[(methoxyimino)methyl]-2-oxo-1,3-oxazolidin-3-yl}-2,4-dimethyl-1,2,4,4a-tetrahydro-2′H,6H-spiro[1,4-oxazino[4,3-a][1,2]oxazolo[4,5-g]quinoline-5,5′-pyrimidine]-2′,4′,6′(1′H,3′H)-trione] | < 0.2 | 0.39 (≈ 0.207 µg/mL) | 1.6 (≈ 0.849 µg/mL) | 0.39 (≈ 0.207 µg/mL) | 0.39 (≈ 0.207 µg/mL) | 0.39 (≈ 0.207 µg/mL) | > 200 | 25 (≈ 13.3 µg/mL) | 200 (≈ 106 µg/mL) | 0.39 (≈ 0.207 µg/mL) | 290 | – | – | – | – | – |
| CON=C[C@H]1CN(c2noc3c(F)c4c(cc23)CC2(C(=O)NC(=O)NC2=O)[C@H]2[C@H](C)O[C@H](C)CN42)C(=O)O1 [Example 43] | 0.39 (≈ 0.207 µg/mL) | 0.78 (≈ 0.414 µg/mL) | 1.6 (≈ 0.849 µg/mL) | 0.78 (≈ 0.414 µg/mL) | 1.6 (≈ 0.849 µg/mL) | 0.78 (≈ 0.414 µg/mL) | > 100 | 50 (≈ 26.5 µg/mL) | > 100 | 1.6 (≈ 0.849 µg/mL) | 440 | – | – | – | – | – |
